In patent US7235584B2, “Non-psychotropic cannabinoids” (Pharmos Corporation, priority 2000, dated 2007):

Key:
[1] = tested on: NMDA receptor; assay: [3H]MK-801 displacement radioligand binding, rat forebrain membranes
Protocol: The identification of possible recognition sites for PRS-211 analogs was carried out by measuring the ability of these PRS-211 analogs to inhibit the binding of MK-801 to rat forebrain membranes.
Brains were removed from Sprague-Dawley rats no more than 5 min after decapitation. Membrane preparations were isolated according to a procedure described previously (Eshhar et al., Brain Res. 476:57, 1989). Prior to radioligand binding measurements, endogenous glutamate present in membranes was removed from the preparation by subjecting the membranes to 3–4 successive washings in 10 mM Tris HCl pH 7.2, performed at 4° C.
The specific binding of the new analogs to NMDA receptors was determined by their ability to displace [^3H]MK-801 from NMDA receptor in rat forebrain preparations. Specifically, rat-forebrain membranes (0.1 mg) were incubated for 2 hours at room temperature with 10 nM of tritiated MK-801 and with the PRS-211 compounds at 3 doses each. Non-specific binding was determined by the use of 0.1 mM MK-801. Following the incubation, bound radioligand was separated from unbound by filtration through GF/B filters. The filters were counted in a β-counter and log of analog concentrations versus % of [^3H]MK-801 specific binding was plotted. The IC50 was calculated from this plot.
Binding of [^3H]MK-801 to membranes was carried out in the presence of 30 μM glycine and 10 μM L-glutamate. Membranes (250 μg protein) were resuspended in 50 mM tris-acetate pH 7.4 buffer and incubated with 10 nM [^3H]MK-801, either alone or in the presence of PRS-211 compounds at 0.1–100 μM concentrations for three hours at room temperature (RT). Reaction buffers used in the different radioligand binding studies contained 10% of an ethanol/Emulphor 620/deionized water mixture. The ratio (by volume) of the respective components in the mixture was 20/3/57. This mixture is required for solubilizing PRS-211 compounds at concentrations above 30 μM. Reaction volume was 1 ml. Non-specific [^3H]MK-801 binding was determined in the presence of 100 μM unlabeled MK-801.
Concentration dependence of certain PRS-211 analogs on inhibition of [^3H]MK-801 binding is illustrated in FIG. 1.

[2] = tested on: transient MCAo in rats; assay: Transient MCAo evaluated by the staircase test; type: in vivo, Sprague Dawley rats; conditions: for staircase contralateral performance, pellet consumption (in words): administered 2 hours after start of MCAo
Text: The test challenges fine motor, sensory and stereognostic function of the cortex in enabling the forepaw (hand) to identify, grasp and accurately manipulate small objects such as food pellets. Loss of the ability to identify, grasp and manipulate small objects reflects a lesion of the fronto-parietal cortex and is a common and crippling deficit after stroke in humans.
The materials for this procedure are identical to those from Physiological Example 5, except for the different concentrations of PRS-211,095. The procedural differences are as follows: • Male Sprague Dawley rats, 230–270 gr (Harlan, Israel) were used. The following compounds and their respective concentrations were tested:
Dexanabinol and analogs PRS-211,095 and PRS-211,220 in PEG ethanol cosolvent 50 mg/ml. Dexanabinol, the analogs and their vehicle were diluted in Intralipid® 20% (Pharmacia) prior to drug administration.
The procedure is essentially as described in Montoya et al. (Montoya, Campbell-Hope, Pemberton and Dunnet, J. Neurosci. Meth. 36:219–228,1991) Animals were kept under mild food deprivation for 3–5 days, receiving 15-gr. food once a day (between 16:00 and 17:00) and free access to water.
In brief, the staircase box contains two rows of seven stairs in each. Two 45 mg food pellets were placed on each step. Animals were placed in the box for 15 minutes sessions. At the end of the session the number of eaten (grasped) and displaced pellets was counted and recorded. Animals were tested twice a day, 4 hours apart. The first session was performed between 8–9 AM and second between 12–13 PM. The animals were trained until they grasped (ate) at least 8 pellets from each set of stairs for two consecutive sessions. Up to one week after the end of the successful training session the animals underwent transient MCAo.
Transient MCAO was performed in essentially the same manner as described in Physiological example 5 with the following modification at step i:
Two minutes prior to thread removal rats were re-anesthetized and administered IV with Dexanabinol 5 mg/kg, analogs
PRS-211,220 or PRS-211,095 at 0.5, 2.5, 5 or 10 mg/kg or vehicle 5 ml/kg. One additional group was sham-treated.
Animals were allowed to recover from the surgery for five days. The mild food deprivation was re-employed during the days following the ischemic insult. They were tested in the staircase box using the above method for 9–12 days. Animals were weighed twice a week during this period.
At the end of the evaluation period, animals were euthanized with pentobarbitone 100 mg/kg IP. The animals were perfused through the heart with heparinized 4% formaldehyde solution in PBS (pH 7.4). Brains were then removed, and kept in the same solution for at least 24h. Then the brains—from the rostral side of the cortex to the cerebellum—were sunk in 30% sucrose in PBS, cryosectioned (20 μm), dried and stained with thionin for histological evaluation of the brain infarct volume. Eight sections at the levels of: 3.3;+2.8;+1.8; +0.8; −0.4;−1.4; −2.2; and −3.4 from Bregma were measured (Swanson, Rat Brain Atlas, 1992). Sections were captured by a CCD camera (V-tech MP-470) and image analyzed (Scion image 1.62A). Infarct size was determined from the series of the 8 sections by either calculation of the infarct volume (mm3) by summing the series of mean lesion areas of two adjacent sections multiplied by the distance between them or calculation of the mean infarct size as percentage of the contralateral hemisphere size; calculation of the mean of the surviving ipsilateral side as percentage of the contralateral hemisphere size; calculation of the mean ipsilateral side ventricle as percentage of the contralateral hemisphere ventricle.
• a. The infarct size was compared using ANOVA (analysis of variance) followed by Duncan's post hoc test. • b. The staircase task performance was evaluated after collecting the data and compressing it into four blocks of six trials: […]

[3] = 5 mg/kg, administered 3 hours following transient MCAo

Row | Compound | NMDA receptor binding / affinity (in words) [1] | Ki ([1]; rat forebrain membranes, read-out: inhibition constant (KI) of [3H]MK-801 binding) [µM] | IC50 ([1]; rat forebrain membranes, read-out: mean IC50 of [3H]MK-801 binding (FIG. 2)) [µM] | staircase contralateral performance, pellet consumption (in words) ([2]; 0.5 mg/kg) | displaced pellets parameter ([2]; 5 mg/kg) | protection of infarct volume (histopathology) ([2]; 2.5 mg/kg) | staircase contralateral performance, pellet consumption (in words) ([2]; 2.5 mg/kg) | staircase contralateral performance, pellet consumption (in words) ([2]; 5 mg/kg) | increase in pellet consumption, session 3 [2, 3] [%] | staircase contralateral performance, pellet consumption (in words) ([2]; 10 mg/kg) | increase in pellet consumption, session 3 ([2]; 5 mg/kg, administered 6 hours following transient MCAo) [%] | displaced pellets parameter ([2]; 0.5 mg/kg) | increase in pellet consumption, session 3 ([2]; 0.5 mg/kg, administered 3 hours following transient MCAo) [%] | increase in pellet consumption, session 3 ([2]; 0.5 mg/kg, administered 6 hours following transient MCAo) [%]
1 | CCCCCCC(C)(C)c1cc(O)c2c(c1)OC(C)(C)[C@H]1CC=C(CO)CC21 (stereo partly drawn) [211,007-000, 1,1 dimethyl heptyl-(3S,4S)-7-hydroxy-Δ^6-tetrahydrocannabinol] | competes with the binding of MK-801 to membranes | 11 ± 1.3 | 10 | No improvement | improved performance | – | – | – | – | – | – | – | – | –
2 | CCCCCCC(C)(C)c1cc(O)c2c(c1)OC(C)(C)C1CC=C(Cn3ccnc3)CC21.Cl (single isomer, unassigned; (+)) [211,095-000, (+)-(3S ,4S )-6,6-Dimethyl-(1,1-dimethylheptyl)-1-hydroxy-9-(imidazolomethyl)-6a,7,10,10a-tetrahydro-6H-dibenzo[b,d]pyran] | relatively high affinity | – | – | moderately improved pellet consumption | improved performance | No protection | moderately improved pellet consumption | robust improvement | 17 | robust improvement | – | – | – | –
3 | CCCCCCC(C)(C)c1cc(O)c2c(c1)OC(C)(C)C1CC=C(CSc3ncc[nH]3)CC21 (single isomer, unassigned; (+)) [211,092-000] | low affinity | – | – | – | – | – | – | – | 58 | – | 30 | – | – | –
4 | CCCCCCC(C)(C)c1cc(O)c2c(c1)OC(C)(C)[C@H]1CC=C(Cn3cccn3)C[C@H]21 [211,220-000, (+)-(3S,4S)-6,6-Dimethyl-(1,1-dimethylheptyl)-1-hydroxy-9-(pyrazolomethyl)-6a,7,10,10a-tetrahydro-6H-dibenzo[b,d]pyran] | relatively high affinity | – | – | – | – | – | – | – | – | – | – | improved performance | 27 | 40
